Assay in all cases: growth of human tumour cells (NCI), 48 h
Assay [1] has as its system A498.
Assay [2] concerns A549.
Assay [3] concerns DU-145.
Assay [4] deals with HCT-15.
Assay [5] relates to HOP-62.
For assay [6], the system named is HOP-92.
Assay [7] has as its system MDA-MB-435.
Assay [8] concerns MOLT-4.
Assay [9] relates to NCI-H460.
Assay [10] has as its system NCI-H522.
Assay [11] relates to NCI/ADR-RES.
The test system of assay [12] is OVCAR-5.
In assay [13] the test system is PC-3.
The test system of assay [14] is SF-268.
For assay [15], the system named is SK-MEL-28.
Assay [16] relates to SK-MEL-2.
Assay [17] has as its system SK-OV-3.
The subject of assay [18] is SN12C.
Assay [19] relates to UO-31.
Assay [20] relates to UACC-62.

The source of these data is ChEMBL document CHEMBL1201862, “PubChem BioAssay data set” (2004).

Molecules are shown by their SMILES.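 Growth conditions: 96-well plates. Treatment: test compound, 48 hours, 5 concentrations. Analysis: linear interpolation between bracketing concentrations; unreached endpoints set to highest concentration. Abbreviation: GI50, concentration required for 50% inhibition of growth.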 Activity calls are given as the source filed them. No stated cut-off is given here; in the data, active = GI50 up to about 1.1 µM and inactive = higher. Square brackets hold non-standard residues; d marks the D form. Peptide text beside a SMILES is read from it. pGlu = O=C1CC[C@@H](C(=O)O)N1; Thz = O=C(O)[C@@H]1CSCN1

Turning to `O=C1/C(=C\c2ccc([N+](=O)[O-])o2)SC2NC(COc3ccc(Cl)cc3)=NN12` (centres undefined), the GI50 in assay [1] is 23.7 µM (inactive); in [2], 18.3 µM (inactive); in [3], 12.9 µM (inactive); in assay [4], 2.07 µM; in assay [5], 22.5 µM (inactive); in assay [6] it was 2.09 µM (inactive). Further, the GI50 in assay [7] was 4.2 µM (inactive); in assay [8], 3.02 µM (inactive); in assay [9], 19.2 µM (inactive); in assay [10] it was 2.22 µM (inactive); in [11], 6.4 µM (inactive); in assay [12] it was 21.2 µM (inactive). In addition, the GI50 in assay [13] was 9.73 µM (inactive); in [14], 3.48 µM (inactive); in assay [15], 4.17 µM (inactive); in assay [16], 18.9 µM (inactive); in assay [17], 24 µM (inactive); in assay [18] it was 14 µM (inactive). The GI50 in [19] was 4.62 µM (inactive).
As for `COc1cc(C(=O)OC2CC(C)=CC[C@@]3(C)CC[C@](O)(C(C)C)C23)ccc1O` (some centres undefined), the GI50 in [1] is 18.9 µM (inactive); in assay [2] it was 12.9 µM (inactive); in assay [3], 17.9 µM (inactive); in [4] it was 18.6 µM; in assay [5] it was 17.2 µM (inactive); in [6], 16.3 µM (inactive). In addition, the GI50 is 40.5 µM (inactive) in [7]; 13.2 µM (inactive) in assay [8]; 16.6 µM (inactive) in assay [9]; 14.3 µM (inactive) in assay [10]; 15.4 µM (inactive) in assay [11]; 18 µM (inactive) in assay [12]. Further, the GI50 was 17.4 µM (inactive) in assay [13]; 19.5 µM (inactive) in assay [14]; 30.3 µM (inactive) in assay [15]; 16.4 µM (inactive) in assay [16]; 15.4 µM (inactive) in [17]; 18.4 µM (inactive) in assay [18]. Besides, in assay [19], the GI50 is 16.4 µM (inactive).
Turning to `O=C1/C(=C/C=C/c2ccccc2)CCC1CNc1ccc(Br)cc1` (centres undefined), the GI50 is 68.9 µM (inactive) in assay [1]; 53 µM (inactive) in [2]; 40.2 µM (inactive) in assay [3]; 4.86 µM in [4]; > 100 µM (inactive) in assay [5]; > 100 µM (inactive) in [6]. The GI50 in assay [7] is 44.5 µM (inactive); in [8] it was 24.3 µM (inactive); in assay [9] it was 72.1 µM (inactive); in assay [10], 21.3 µM (inactive); in [11], > 10 µM (inactive); in assay [12], > 100 µM (inactive). In addition, the GI50 was 79.3 µM (inactive) in assay [13]; > 100 µM (inactive) in [14]; > 100 µM (inactive) in assay [15]; 88.1 µM (inactive) in [17]; 4.51 µM (inactive) in assay [18]; 6.92 µM (inactive) in assay [20]. The GI50 in [19] was 48.4 µM (inactive).
On to `O=C1C=C2C(=NC34CCCCC3C(c3ccccc3)C3=C(c5ccccc5CC3)N24)c2ccccc21` (centres undefined), for which the GI50 in assay [1] is > 10 µM (inactive); in [2], > 10 µM (inactive); in assay [3] it was > 10 µM (inactive); in assay [4], above 10 µM; in [5], > 10 µM (inactive); in assay [6], > 10 µM (inactive). Also, the GI50 in assay [7], in assay [8], in [9], in [10], in [11] and in assay [12] was > 10 µM (inactive) throughout. Further, the GI50 in assay [13], in [14], in [15], in [16], in [17] and in assay [18] was > 10 µM (inactive) throughout. Moreover, the GI50 in assay [20] was > 10 µM (inactive).
With `COc1cccc(N2N=C3c4ccccc4-n4c(nc5ccccc54)C3C2N)c1` (centres undefined), the GI50 in assay [1] was > 100 µM (inactive); in assay [2] it was > 100 µM (inactive); in assay [3], > 100 µM (inactive); in [4], above 100 µM; in assay [5] it was > 100 µM (inactive); in [6], > 100 µM (inactive). The GI50 is 62.8 µM (inactive) in [7]; > 100 µM (inactive) in assay [9]; > 100 µM (inactive) in assay [10]; > 100 µM (inactive) in [11]; 47.2 µM (inactive) in assay [12]; > 100 µM (inactive) in assay [13]. Moreover, the GI50 in [14], in assay [15], in assay [16], in assay [18], in [20] and in assay [19] was > 100 µM (inactive) each time.
Consider `COc1ccc(C2Oc3c(cccc3-c3c(-c4ccc(O)cc4)oc4cc(O)cc(O)c4c3=O)C(=O)C2O)cc1O` (centres undefined), for which the GI50 in [1] is > 100 µM (inactive); in assay [2], > 100 µM (inactive); in [3], > 100 µM (inactive); in assay [4] it was above 100 µM; in assay [5], > 100 µM (inactive); in assay [6] it was > 100 µM (inactive). For the same molecule, the GI50 in assay [7], in [8], in assay [9], in assay [11], in [12] and in [13] was > 100 µM (inactive) each time. Besides, the GI50 in [14], in [15], in assay [17], in assay [18], in assay [20] and in assay [19] was > 100 µM (inactive) each time.
`O=c1c2cc([N+](=O)[O-])ccc2[nH]n1Cc1ccccc1Cl`: the GI50 in [1] is 33.3 µM (inactive); in assay [2] it was 42.1 µM (inactive); in assay [3], 47 µM (inactive); in assay [4], above 100 µM; in [5], 38.1 µM (inactive); in assay [6] it was 27.8 µM (inactive). Moreover, the GI50 in [7] is 64.9 µM (inactive); in [8] it was 74 µM (inactive); in [9] it was 31 µM (inactive); in assay [10] it was 32.7 µM (inactive); in assay [11], 40.6 µM (inactive); in [12], > 100 µM (inactive). Further, the GI50 in assay [13] was 93.8 µM (inactive); in assay [14], > 100 µM (inactive); in assay [15] it was 44.6 µM (inactive); in [18], 86.1 µM (inactive); in [20] it was > 100 µM (inactive); in assay [19] it was 39 µM (inactive).
Turning to `CCO/C(=N/S(=O)(=O)C(F)(F)F)N(C(C)C)C(C)C`, the GI50 was > 100 µM (inactive) in assay [1]; > 100 µM (inactive) in [2]; > 100 µM (inactive) in [3]; above 100 µM in [4]; > 100 µM (inactive) in [6]; > 100 µM (inactive) in assay [7]. Besides, the GI50 in assay [8], in [9], in [10], in [11], in [12] and in [13] was > 100 µM (inactive) in each case. Further, the GI50 in [14], in [15], in assay [16], in [18] and in assay [20] was > 100 µM (inactive) in each case.
Take `CC1=C(C#N)C(=C(C#N)C#N)OC1(C)Cc1ccccc1` (centres undefined): the GI50 was 87.7 µM (inactive) in assay [1]; 56.8 µM (inactive) in assay [2]; 37 µM (inactive) in assay [3]; 23.3 µM in assay [4]; 58.9 µM (inactive) in [5]; 19.7 µM (inactive) in [6]. Further, the GI50 in assay [7] was > 100 µM (inactive); in [8], 34.3 µM (inactive); in assay [10] it was 14.4 µM (inactive); in assay [11], 31.9 µM (inactive); in assay [12] it was 61.1 µM (inactive); in [13], 36.2 µM (inactive). The GI50 was 49.5 µM (inactive) in assay [14]; 49.9 µM (inactive) in assay [15]; 36.7 µM (inactive) in [16]; > 100 µM (inactive) in [17]; 82.6 µM (inactive) in [18]; 20.6 µM (inactive) in [20]. For the same molecule, the GI50 in assay [19] was 18.7 µM (inactive).
Turning to `COc1cc(Br)c(CC2C3=C(CCN2C(=O)C2CCC2)CC2(CC3)OCCO2)cc1O` (centres undefined), the GI50 in assay [1] is 62.2 µM (inactive); in [2] it was 57.9 µM (inactive); in assay [3] it was > 100 µM (inactive); in assay [4], 27.9 µM; in assay [5], > 100 µM (inactive); in [6], 56.4 µM (inactive). The GI50 in assay [7] was 23.6 µM (inactive); in [8], 43.3 µM (inactive); in assay [9], 50.2 µM (inactive); in [10], 27.7 µM (inactive); in assay [11] it was 26.5 µM (inactive); in [12], > 100 µM (inactive). For the same molecule, the GI50 in assay [13] is 46.6 µM (inactive); in assay [14], 83.9 µM (inactive); in [15] it was 93.5 µM (inactive); in [16], > 100 µM (inactive); in assay [17], 68.2 µM (inactive); in assay [18] it was 84.1 µM (inactive). In addition, the GI50 in assay [20] was 53.8 µM (inactive).
Regarding `O=C1CC[C@@H](C(=O)N2CSC[C@H]2C(=O)O)N1` [PIDOTIMOD] ([pGlu]-[Thz]-OH), the GI50 in assay [1] was > 100 µM (inactive); in assay [2], > 100 µM (inactive); in assay [3] it was > 100 µM (inactive); in assay [4], above 100 µM; in [5], > 100 µM (inactive); in assay [7], > 100 µM (inactive). Moreover, the GI50 in [8], in [9], in [10], in [11], in [12] and in assay [13] was > 100 µM (inactive) in each case. For the same molecule, the GI50 in assay [14], in [15], in assay [16], in [17], in assay [18] and in [20] was > 100 µM (inactive) in each case. Also, the GI50 in assay [19] was > 100 µM (inactive).
